In brackets after ≈: the same amount, converted by molar mass. Where two headings read alike, the source gives them in different places. Bounds are passed on as bounds.

Series [1] in a line: Effect of temperature on viscosity (Gilmont falling ball viscometer). It counts as physicochemical. Here is the method:
As weather may dictate substantially different conditions of use, the effect of temperature on viscosity was determined. A Gilmont falling ball viscometer was filled with diethylene glycol monoethyl ether and calibrated for several hours at each temperature. At −17° C., 8° C., 23° C. and 40° C. the measured viscosity was 6.6 cP, 5.4 cP, 3.8 cP and 3.1 cP, respectively.

For series [2] the following is noted: in vivo; cited from earlier work.
Series [3] can be described thus: Solubility of benzodiazepines in DEGEE (Transcutol) at 25° C. and −16° C. The conditions noted are these: organic solvent or mixture, thermodynamic from solid. How it is done: The solubilities of several other benzodiazepines were measured in DEGEE (diethylene glycol monoethyl ether, transcutol) by the techniques of Example 1. Initially, 10 mg of the drug was loaded in the glass vial and 130-μL of DEGEE was added, and the samples were sonicated for 10 minutes. […] Samples were stored at −16° C. and 25° C. overnight, and centrifuged (5000 rpm, 2 minutes, −10° C. and 23° C. for the −16° C. and 25° C. samples, respectively). […] Clonazepam was measured by UV at 350 nm; all others at 300 nm.

The nature of series [4]: Saturated solubility in receiver fluid systems (HPLC). To be noted: 37 °C, thermodynamic from solid. How it is done: Following the stability studies, a suitable receiver fluid was developed in order to ensure that sink conditions for tested drug were such that the drug release was limited by the solubility of the drug in the receiver fluid. […] Briefly, drug was saturated into different receiver fluid systems by adding excess drug and allowed to stir with a magnetic flea over a period of 2 h at 37° C. Each saturated solution was then filtered using a 0.2 μm syringe filter and the resultant solution was assayed via HPLC.
Calibration curves for clonazepam were constructed between 0.2 to 10 μg/mL with appropriate replicates to ensure repeatability and linearity.
Standards were prepared in receiver fluid (10% ethanol in buffer 6). […] The filtration at room temperature was performed as quickly as possible to minimize any drug precipitation as the temperature dropped from 37° C. during filtration.

The nature of series [5]: Drug recovery, degradation and binding to nasal sheep mucosa. In kind it is in vitro ADME. The conditions noted are these: sheep nasal mucosa (excised tissue) in buffer, 37° C., read-out: % recovery in the presence of nasal sheep mucosa. How it is done:
(i) Drug recovery, degradation and binding to nasal sheep mucosa: The effect of drug recovery, degradation and binding to sheep nasal mucosa was determined. Briefly, a known surface area (approx. 1 cm^2) of sheep nasal mucosa was added into a glass vial containing a known concentration (10 μg/mL) of each drug prepared in the receiver fluid (10% ethanol in pH 6 buffer). The content of the vial was allowed to equilibrate at 37° C. over a period of 48 h. At 24 h intervals, a sample was removed and assayed via HPLC. The percentage of drug recovered was calculated using Equation 4: % drug recovered=(drug concentration at t=Y/drug concentration at t=Z)×100 (Equation 4)
where, Y=specific time point at 37° C. (in the presence of nasal sheep mucosa); and Z=specific time point at 37° C. (in the absence of nasal sheep mucosa).
In addition to the stability against heat degradation, the effect of drug binding or degradation in the presence of nasal sheep mucosa was also determined (Table 6).

A short description of series [6]: Viscosity of solvent matrices (Brookfield DV-I viscometer). In kind it is physicochemical. To be noted: solvent matrix without drug. How it is done: (§1) Fourteen representative solvent matrices used for clonazepam formulations were tested for spray pattern and compared with water. The solvent mixtures were made up, spiked with minute amounts of Coomassie Brilliant Blue Dye and 100 μL were subsequently filled into Pfeiffer unit-dose devices (Pfeiffer of America, Princeton, N.J.). To measure the spray pattern, the devices were actuated below a sheet of paper that was located 3 cm above the spray nozzle. All measurements were made at ambient room temperature (20-25° C.). The smallest (Dmin) and the largest (Dmax) diameter of the blue pattern formed on the sheet of paper were measured and the results used to calculate the Dmax/Dmin ratio, the area of the pattern and the average spray angle. The plume area at 3 cm was calculated using the equation for the area of an ellipse using the half of the two diameters as the ellipse radii. Viscosity of all formulations was measured using Brookfield DV-I viscometer (Brookfield Engineering Laboratories, Inc., Middleboro, Mass.).

The nature of series [7]: Spray pattern of solvent matrices (plume area, spray angle, Dmax/Dmin). It counts as physicochemical. The conditions noted are these: 100 μL from Pfeiffer unit-dose device, paper 3 cm above nozzle, 20-25° C. Here is the method: as §1
The nature of series [8]: Human pharmacokinetic study (oral, intravenous, intranasal cross-over). The conditions noted are these: after 1 mg clonazepam. Here is the method: The human pharmacokinetics, safety, and tolerability of the benzodiazepines compositions of the present invention formulated for intranasal delivery for therapeutic applications are evaluated using standard clinical procedures. Benzodiazepine compositions formulated for intranasal delivery are provided, for example, for application by the participants to intranasal mucosa.
A primary objective of initial studies in humans is to determine and compare pharmacokinetic profiles of three dosage forms of a benzodiazepine: oral, i.v., and intranasal, following single administration. An example of such a study in humans is a cross-over study performed in 12 healthy male volunteers. Plasma and urine level of clonazepam and 7-amino-clonazepam are determined, for example, using HPLC and UV detection. […] Further the initial studies in humans are used to determine local tolerability of intranasal formulation using questionnaire and the Visual Analog Scale (VAS). VAS is a validated instrument that has been used in numerous studies to quantify subjective […]. In addition, cognitive, sleepiness and mood effects are evaluated using questionnaires and scales (see, e.g., Example 10 below). Further, attention and vigilance may be evaluated using, for example, LEEDS Psychomotor Multiple Choice Reaction Time (MCRT) testing.
A human pharmacokinetic study was carried out as described in Example 8.
15 young, healthy male volunteers received a single dose of 1 mg clonazepam by oral, intravenous and intranasal routes in a three-period cross-over design.

In the case of `CCOCCOCCO` [diethylene glycol monoethyl ether], the viscosity is reported as 5.4 cP in series [1] (8° C.), 3.8 cP in series [1] (23° C.), 3.1 cP in series [1] (40° C.) and 6.6 cP in series [1] (−17° C.).
As to `O=C1Nc2ccc(Cl)cc2C(c2ccccc2Cl)=NC1O` (stereo not shown) [Lorazepam], the half-life in series [2] is 8 to 24 h. Further, the “roughly equal dose (potency equivalence)” value in series [2] is around 1.0 mg. Besides, the solubility in series [3] (25 °C) was above 110000 µg/mL; in series [3] (-16 °C), above 130000 µg/mL. In addition, the solubility at 2 h in series [4] (pH 6, aqueous buffer, buffer pH 6, 37° C.) turned out to be 78.5 µg/mL (≈ 244 µM); in series [4] (pH 6, aqueous with cosolvent or surfactant or cyclodextrin, 20% ethanol in buffer pH6, 37° C.) it was 309 µg/mL (≈ 962 µM); in series [4] (pH 6, aqueous with cosolvent or surfactant or cyclodextrin, receiver solution, 10% ethanol in buffer pH 6, 37° C.) it was 126 µg/mL (≈ 392 µM). For the same compound, the figures for the recovery at 24 h, 10 μg/mL in series [5] (buffer pH 5 (10% ethanol)), in series [5] (buffer pH 6 (10% ethanol)) and in series [5] (buffer pH 7 (10% ethanol)) were 96.9%, 96.8% and 96.2%, respectively. The results for the recovery at 48 h, 10 μg/mL in series [5] (buffer pH 5 (10% ethanol)), in series [5] (buffer pH 6 (10% ethanol)) and in series [5] (buffer pH 7 (10% ethanol)) were 94.9%, 97% and 91.7%, respectively.
With `O` [Water], the Avg. viscosity in series [6] stood at 1.0 cP. The “Ratio Dmax/Dmin” value in series [7] turned out to be 1.10. Further, the Spray angle in series [7] (average angle calculated from diameters) is on record as 73.1 °. Also, the “Plume area at 3 cm” value in series [7] (ellipse area from Dmax and Dmin) was found to be 15.52 cm^2.
As for `Nc1ccc2c(c1)C(c1ccccc1Cl)=NCC(=O)N2` [7-Amino-clonazepam], the “mean AUCt of metabolite” value in series [8] (intranasal) was 16.9 ng·h/mL; in series [8] (intravenous), “approximately 30 ng·h/mL”; in series [8] (oral), “approximately 30 ng·h/mL”. The “mean Cmax of metabolite” value in series [8] (intranasal) was 1.17 ng/mL; in series [8] (intravenous), “approximately 2 ng/mL”; in series [8] (oral), “approximately 2 ng/mL”.
`CN1C(=O)CN=C(c2ccccc2)c2cc(Cl)ccc21` [Diazepam]: the “roughly equal dose (potency equivalence)” value in series [2] was around 5.0 mg. Further, the recovery at 24 h, 10 μg/mL in series [5] (buffer pH 5 (10% ethanol)) came out at 97.6%; in series [5] (buffer pH 6 (10% ethanol)) it was 98%; in series [5] (buffer pH 7 (10% ethanol)), 97.6%. For the same compound, the recovery at 48 h, 10 μg/mL in series [5] (buffer pH 5 (10% ethanol)) came to 95.6%; in series [5] (buffer pH 6 (10% ethanol)), 125%; in series [5] (buffer pH 7 (10% ethanol)) it was 94.7%.

A word on the viscosity: it is the internal friction of a fluid under shear. The low end stands for easy flow, the high end for sluggish flow. Broadly, the half-life is the time needed for the level to fall by half in the phase considered. The term solubility denotes how much of the substance goes into solution per volume.

(Values after patent publication US8609651B2, “Pharmaceutical compositions of benzodiazepines and method of use thereof” (Jazz Pharmaceuticals, Inc., priority 2006, dated 2013).)
